Reference: patent US20240409585A1, “MACROCYCLIC IMMUNOMODULATORS” (priority 2021, published 2024)
Numbered stars: 1 amine (or outer) side, 2 acyl side, 3 side chain; on linkers, the order of the positions; unused ones are H or OH. Bridge positions count the residues as written; N and C are the ends. Square brackets hold non-standard residues; d marks the D form. Peptide text beside a SMILES is read from it. * marks the point of attachment. ξ: configuration not given here. X18 = O=C(O)COCCc1ccc(-c2ccc(C[C@H](N[*:1])C(=O)[*:2])cc2)cc1; Phe(4-COOH) = N[C@@H](Cc1ccc(C(=O)O)cc1)C(=O)O; Bip = N[C@@H](Cc1ccc(-c2ccccc2)cc1)C(=O)O; Phe(3-Cl) = N[C@@H](Cc1cccc(Cl)c1)C(=O)O; Phe(3-Me) = Cc1cccc(C[C@H](N)C(=O)O)c1; Phe(4-I) = N[C@@H](Cc1ccc(I)cc1)C(=O)O; Phe(2-F) = N[C@@H](Cc1ccccc1F)C(=O)O; 4Pal = N[C@@H](Cc1ccncc1)C(=O)O; Cha = N[C@@H](CC1CCCCC1)C(=O)O; Ile(3ξ) = CCC(C)[C@H](N)C(=O)O; AllylGly = C=CC[C@H](N)C(=O)O; Thr(3ξ) = CC(O)[C@H](N)C(=O)O; NMeNle = CCCC[C@H](NC)C(=O)O; Carboxymethyl = O=C(O)C*; NMeA = CN[C@@H](C)C(=O)O; Orn = NCCC[C@H](N)C(=O)O; Dab = NCC[C@H](N)C(=O)O; Dap = NC[C@H](N)C(=O)O; ξC = NC(CS)C(=O)O

biological target: T1, PE-labeled human PD-L1-Ig binding to Jurkat cell line over-expressing human PD-1 (Jurkat-PD-1) (Homo sapiens, UniProt Q15116); assay: Jurkat-PD-1 Cell Binding High-Content Screening Assay (CBA): Method 1; settings: Jurkat-hPD-1 cells, PE-labeled PD-L1-Ig 20 nM final; read-out: Jurkat HPDL1 PD1 IC50 (uM) (Method 1)
T1 construct: expressed in transfected cells; host or cells: Jurkat
T1 sequence (Q15116 25-288): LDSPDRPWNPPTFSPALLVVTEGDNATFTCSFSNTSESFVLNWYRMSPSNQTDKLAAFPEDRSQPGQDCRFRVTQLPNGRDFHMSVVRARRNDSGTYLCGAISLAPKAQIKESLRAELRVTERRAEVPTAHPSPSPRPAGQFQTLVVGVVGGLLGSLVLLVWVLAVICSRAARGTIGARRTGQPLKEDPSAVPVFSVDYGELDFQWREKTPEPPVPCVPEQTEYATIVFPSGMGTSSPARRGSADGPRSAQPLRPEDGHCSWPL

Compound	IC50
CC(C)C[C@@H]1NC(=O)[C@H](CCN)NC(=O)[C@@H](CC(C)C)NC(=O)[C@H](C)N(C)C(=O)[C@H](C(C)C)NC(=O)[C@H](Cc2ccc(-c3ccccc3)cc2)NC(=O)[C@H](C(C)C)NC(=O)[C@H](Cc2c[nH]c3ccccc23)NC(=O)[C@H](CC(=O)O)NC(=O)[C@H](Cc2ccc(O)cc2)NC(=O)[C@H](CCC(N)=O)NC(=O)CSC[C@@H](C(=O)N[C@@H](C)C(N)=O)NC(=O)[C@H]([C@@H](C)O)NC(=O)[C@H](C(C)C)NC1=O [Compound 1359] ({CH2CO}-QYDWV[Bip]V[NMeA][dL][Dab]LVTCA-NH2; thioether N-14)	0.05 µM
CCCC[C@H]1C(=O)N[C@H](C)C(=O)N[C@@H](CCN)C(=O)N[C@@H](CC2CCCCC2)C(=O)N[C@@H](C(C)C)C(=O)N[C@@H](CO)C(=O)N[C@H](C(=O)N[C@@H](CC(N)=O)C(N)=O)CSCC(=O)N[C@@H](Cc2ccncc2)C(=O)N[C@@H](Cc2ccc(C(=O)O)cc2)C(=O)N[C@@H](CC(=O)O)C(=O)N[C@@H](Cc2c[nH]c3ccccc23)C(=O)N[C@@H](C(C)C)C(=O)N[C@@H](Cc2ccc(-c3ccccc3)cc2)C(=O)N[C@@H](CCCN)C(=O)N1C [Compound 2090] ({CH2CO}-[4Pal][Phe(4-COOH)]DWV[Bip][Orn][NMeNle][dA][Dab][Cha]VSCN-NH2; thioether N-14)	0.14 µM
CC(C)C[C@@H]1NC(=O)[C@H](CCCN)NC(=O)[C@@H](CC(C)C)NC(=O)[C@H](C)N(C)C(=O)[C@H](CCCNC(=N)N)NC(=O)[C@H](Cc2ccc(-c3ccccc3)cc2)NC(=O)[C@H](C(C)C)NC(=O)[C@H](Cc2c[nH]c3ccccc23)NC(=O)[C@H](CC(=O)O)NC(=O)[C@H](Cc2ccc(O)cc2)NC(=O)[C@H](Cc2cnc[nH]2)NC(=O)CSC[C@@H](C(=O)N[C@@H](C)C(N)=O)NC(=O)[C@H]([C@@H](C)O)NC(=O)[C@H](C(C)C)NC1=O [Compound 1144] ({CH2CO}-HYDWV[Bip]R[NMeA][dL][Orn]LVTCA-NH2; thioether N-14)	0.05 µM
CC(C)C[C@@H]1NC(=O)[C@H](CCN)NC(=O)[C@@H](CC(C)C)NC(=O)[C@H](C)N(C)C(=O)[C@H](CCCNC(=N)N)NC(=O)[C@H](Cc2ccc(-c3ccccc3)cc2)NC(=O)[C@H](C(C)C)NC(=O)[C@H](Cc2c[nH]c3ccccc23)NC(=O)[C@H](CC(=O)O)NC(=O)[C@H](Cc2ccc(OCC(=O)O)cc2)NC(=O)[C@H](CN)NC(=O)CSC[C@@H](C(=O)N[C@@H](C)C(N)=O)NC(=O)[C@H]([C@@H](C)O)NC(=O)[C@H](C(C)C)NC1=O [Compound 1450] ({CH2CO}-[Dap]Y(Carboxymethyl)DWV[Bip]R[NMeA][dL][Dab]LVTCA-NH2; thioether N-14)	0.06 µM
CC(C)C[C@@H]1NC(=O)[C@H](CCCNC(=N)N)NC(=O)[C@@H](CC(C)C)NC(=O)[C@H](C)N(C)C(=O)[C@H](CCCNC(=N)N)NC(=O)[C@H](Cc2ccc(I)cc2)NC(=O)[C@H](C(C)C)NC(=O)[C@H](Cc2c[nH]c3ccccc23)NC(=O)[C@H](CC(=O)O)NC(=O)[C@H](Cc2ccc(O)cc2)NC(=O)[C@H](Cc2ccccc2)NC(=O)CSC[C@@H](C(=O)N[C@@H](C)C(N)=O)NC(=O)[C@H]([C@@H](C)O)NC(=O)[C@H](C(C)C)NC1=O [Compound 1089] ({CH2CO}-FYDWV[Phe(4-I)]R[NMeA][dL]RLVTCA-NH2; thioether N-14)	0.94 µM
Cc1cccc(C[C@@H]2NC(=O)[C@H](CC(=O)O)NC(=O)[C@H](Cc3ccc(OCC(=O)O)cc3)NC(=O)[C@H](Cc3ccc(OCC(=O)O)cc3)NC(=O)CSC[C@@H](C(N)=O)NC(=O)[C@H](CC(N)=O)NC(=O)[C@H](C(C)C)NC(=O)[C@H](CC3CCCCC3)NC(=O)[C@H](CCN)NC(=O)[C@@H](CC(C)C)NC(=O)[C@H](C)N(C)C(=O)[C@H](Cc3ccc(OCC(=O)O)cc3)NC(=O)[C@H](Cc3ccc(-c4ccccc4)cc3)NC(=O)[C@H](Cc3ccc(OCC(=O)O)cc3)NC2=O)c1 [Compound 1653] ({CH2CO}-Y(Carboxymethyl)Y(Carboxymethyl)D[Phe(3-Me)]Y(Carboxymethyl)[Bip]Y(Carboxymethyl)[NMeA][dL][Dab][Cha]VNC-NH2; thioether N-14)	0.03 µM
CC(C)C[C@@H]1NC(=O)[C@H](CCN)NC(=O)[C@@H](CC(C)C)NC(=O)[C@H](C)N(C)C(=O)[C@H](CCCNC(=N)N)NC(=O)[C@H](Cc2ccc(-c3ccc(CCOCC(=O)O)cc3)cc2)NC(=O)[C@H](C(C)C)NC(=O)[C@H](Cc2c[nH]c3ccccc23)NC(=O)[C@H](CC(=O)O)NC(=O)[C@H](Cc2ccc(O)cc2)NC(=O)[C@H](CC(N)=O)NC(=O)CSC[C@@H](C(=O)N[C@@H](C)C(N)=O)NC(=O)[C@H]([C@@H](C)O)NC(=O)[C@H](C(C)C)NC1=O [Compound 1210] ({CH2CO}-NYDWV[X18]R[NMeA][dL][Dab]LVTCA-NH2; thioether N-14)	0.88 µM
CCC(C)[C@@H]1NC(=O)[C@H](Cc2ccc(-c3ccccc3)cc2)NC(=O)[C@H](CC(C)C)NC(=O)[C@H](Cc2c[nH]c3ccccc23)NC(=O)[C@H](CC(=O)O)NC(=O)[C@H](Cc2ccc(C(=O)O)cc2)NC(=O)[C@H](Cc2ccc(OCC(=O)O)cc2)NC(=O)CSC[C@@H](C(=O)N[C@@H](CC(N)=O)C(N)=O)NC(=O)[C@H](CCC(=O)O)NC(=O)[C@H](C(C)C)NC(=O)[C@H](CC2CCCCC2)NC(=O)[C@H](CCN)NC(=O)[C@@H](CC(C)C)NC(=O)[C@H](C)N(C)C1=O (stereo partly drawn) [Compound 1921] ({CH2CO}-Y(Carboxymethyl)[Phe(4-COOH)]DWL[Bip][Ile(3ξ)][NMeA][dL][Dab][Cha]VECN-NH2; thioether N-14)	0.01 µM
CC(C)C[C@@H]1NC(=O)[C@H](Cc2c[nH]c3ccccc23)NC(=O)[C@H](CC(=O)O)NC(=O)[C@H](Cc2ccc(O)cc2)NC(=O)[C@H](Cc2ccccc2)NC(=O)CSC[C@@H](C(=O)N[C@@H](C)C(N)=O)NC(=O)[C@H](C(C)O)NC(=O)[C@H](CCN)NC(=O)[C@H](CC(C)C)NC(=O)[C@H](CC(N)=O)NC(=O)[C@@H](C)NC(=O)[C@H](C)N(C)C(=O)[C@H](C(C)C)NC(=O)[C@H](Cc2ccc(-c3ccccc3)cc2)NC1=O (stereo partly drawn) [Compound 1534] ({CH2CO}-FYDWL[Bip]V[NMeA][dA]NL[Dab][Thr(3ξ)]CA-NH2; thioether N-14)	0.49 µM
Cc1cccc(C[C@@H]2NC(=O)[C@H](CC(=O)O)NC(=O)[C@H](Cc3ccc(C(=O)O)cc3)NC(=O)[C@H](Cc3ccncc3)NC(=O)CSC[C@@H](C(=O)N[C@@H](C)C(N)=O)NC(=O)[C@H]([C@@H](C)O)NC(=O)[C@H](C(C)C)NC(=O)[C@H](CC(C)C)NC(=O)[C@H](CCN)NC(=O)[C@@H](CC(C)C)NC(=O)[C@H](C)N(C)C(=O)[C@H](C(C)C)NC(=O)[C@H](Cc3ccc(-c4ccccc4)cc3)NC(=O)[C@H](C(C)C)NC2=O)c1 [Compound 1420] ({CH2CO}-[4Pal][Phe(4-COOH)]D[Phe(3-Me)]V[Bip]V[NMeA][dL][Dab]LVTCA-NH2; thioether N-14)	0.01 µM
C=CC[C@@H]1NC(=O)[C@H](Cc2cccc(C)c2)NC(=O)[C@H](CC(=O)O)NC(=O)[C@H](Cc2ccncc2)NC(=O)[C@H](Cc2ccc(OCC(=O)O)cc2)NC(=O)CSCC(C(=O)NCC(N)=O)NC(=O)[C@H](CO)NC(=O)[C@H](C(C)C)NC(=O)[C@H](CC(C)C)NC(=O)[C@H](CC(N)=O)NC(=O)[C@@H](CC(C)C)NC(=O)[C@H](C)N(C)C(=O)[C@H](CC=C)NC(=O)[C@H](Cc2ccc(-c3ccccc3)cc2)NC1=O (stereo partly drawn) [Compound 1883] ({CH2CO}-Y(Carboxymethyl)[4Pal]D[Phe(3-Me)][AllylGly][Bip][AllylGly][NMeA][dL]NLVS[ξC]G-NH2; thioether N-14)	0.06 µM
CC[C@H](C)[C@@H]1NC(=O)[C@H](Cc2ccc(-c3ccccc3)cc2)NC(=O)[C@H](CC(C)C)NC(=O)[C@H](Cc2c[nH]c3ccccc23)NC(=O)[C@H](CC(=O)O)NC(=O)[C@H](Cc2ccc(OCC(=O)O)cc2)NC(=O)[C@H](Cc2ccccc2)NC(=O)CSC[C@@H](C(N)=O)NC(=O)[C@H](CO)NC(=O)[C@H](C(C)C)NC(=O)[C@H](CC(C)C)NC(=O)[C@H](CC(N)=O)NC(=O)[C@@H](CC(C)C)NC(=O)[C@H](C)N(C)C1=O [Compound 1629] ({CH2CO}-FY(Carboxymethyl)DWL[Bip]I[NMeA][dL]NLVSC-NH2; thioether N-14)	0.05 µM
Cc1cccc(C[C@@H]2NC(=O)[C@H](CC(=O)O)NC(=O)[C@H](Cc3ccc(OCC(=O)O)cc3)NC(=O)[C@H](Cc3ccncc3)NC(=O)CSC[C@@H](C(N)=O)NC(=O)[C@H](CCC(N)=O)NC(=O)[C@H](C(C)C)NC(=O)[C@H](CC3CCCCC3)NC(=O)[C@H](CCN)NC(=O)[C@@H](CC(C)C)NC(=O)[C@H](C)N(C)C(=O)[C@H](Cc3ccc(OCC(=O)O)cc3)NC(=O)[C@H](Cc3ccc(-c4ccccc4)cc3)NC(=O)[C@H](Cc3ccc(OCC(=O)O)cc3)NC2=O)c1 [Compound 1659] ({CH2CO}-[4Pal]Y(Carboxymethyl)D[Phe(3-Me)]Y(Carboxymethyl)[Bip]Y(Carboxymethyl)[NMeA][dL][Dab][Cha]VQC-NH2; thioether N-14)	0.03 µM
CC(C)C[C@@H]1NC(=O)[C@H](Cc2c[nH]c3ccccc23)NC(=O)[C@H](CC(=O)O)NC(=O)[C@H](Cc2ccccc2F)NC(=O)[C@H](Cc2ccccc2)NC(=O)CSC[C@@H](C(=O)N[C@@H](C)C(N)=O)NC(=O)[C@H](CO)NC(=O)[C@H](C(C)C)NC(=O)[C@H](CC(C)C)NC(=O)[C@H](CC(N)=O)NC(=O)[C@@H](C)NC(=O)[C@H](C)N(C)C(=O)[C@H](C(C)C)NC(=O)[C@H](Cc2ccc(-c3ccccc3)cc2)NC1=O [Compound 1735] ({CH2CO}-F[Phe(2-F)]DWL[Bip]V[NMeA][dA]NLVSCA-NH2; thioether N-14)	0.02 µM
CC(C)C[C@@H]1NC(=O)[C@H](CCCNC(=N)N)NC(=O)[C@@H](CC(C)C)NC(=O)[C@H](C)N(C)C(=O)[C@H](C(C)C)NC(=O)[C@H](Cc2ccc(-c3ccccc3)cc2)NC(=O)[C@H](C(C)C)NC(=O)[C@H](Cc2cccc(Cl)c2)NC(=O)[C@H](CC(=O)O)NC(=O)[C@H](Cc2ccc(O)cc2)NC(=O)[C@H](CC(N)=O)NC(=O)CSC[C@@H](C(=O)N[C@@H](C)C(N)=O)NC(=O)[C@H]([C@@H](C)O)NC(=O)[C@H](C(C)C)NC1=O [Compound 1274] ({CH2CO}-NYD[Phe(3-Cl)]V[Bip]V[NMeA][dL]RLVTCA-NH2; thioether N-14)	0.03 µM
